# Measurements taken from patent US10111889B2, “Uses of ganaxolone” (priority 2014, dated 2018).
# Assays:
# [1] = system: RQ mice; experiment: Evaluation of sleep patterns (video and EEG) in RQ mice; type: in vivo, mouse; conditions: 2 mg/kg i.p. on two consecutive days
# Excerpt: RR and RQ mice (n=3 each) were monitored with video and EEG recordings. […] Sleep stages (Wake, NREM and REM) were scored visually from the EEG by an experienced scorer. For statistical analysis, EEG delta power (0.5-4 Hz) was normalized by dividing by the sum of power in the non-delta bands (6-100 Hz).
# [2] = system: WAG/Rij mice; conditions: administered directly into somatosensory cortex; cited from earlier work
# [3] = clinical trials; even at very high doses; cited from earlier work
# [4] = system: GABAA receptor; experiment: Whole-cell patch clamp, tonic/holding current in somatosensory cortical layer II/III pyramidal cells of brain slices; type: cell-based, mouse; conditions: 30 μM
# Description: Horizontal slices (400 μm) were prepared from the brains of C57BL/6J mice RR and RQ mice of either sex (16-26 days old). […] Mice were anesthetized with isoflurane, decapitated, and the brain was removed and placed in ice-cold cutting solution containing (in mM): 125 NaCl, 25 NaHCO3, 2.5 KCl, 1.25 NaH2PO4, 0.5 CaCl2, 3.35 MgCl2, 25 D-Glucose, 13.87 M sucrose, and bubbled with 95% O2 and 5% CO2. Slices were cut using a vibratome (Leica VT 1000S, Global Medical Imaging; Ramsey, Minn.) and placed in an incubation chamber containing standard 2 mM CaCl2, 1 mM MgCl2 artificial cerebrospinal fluid (ACSF) at room temperature for 1 hour before being used for recordings. Whole cell patch-clamp recordings were made from somatosensory cortical layer II/III pyramidal cells or ventrobasal thalamic relay cells, visualized using an upright differential interference contrast microscope (Axioskop FS2, Zeiss; Oberkochen, Germany). […]
# Additional segments (30 s) just prior to and 90 s after bicuculline administration were analyzed to quantify inhibitory tonic currents. […] Tonic current was calculated as the difference between the fitted Gaussian means before and after bicuculline administration. Current density (pA/pF) was calculated by dividing the current by cell capacitance.
# [5] = system: wild-type (RR) mice; experiment: EEG monitoring of SWDs in wild-type (RR) mice after blocking cortical tonic inhibition; type: in vivo, mouse
# Excerpt: The present study used wild-type Harlan C57BL/6J-OlaHsd and γ2R43Q knock-in mice bred into a background of C57BL/6J-OlaHsd mice. Behavioral and electrographic markers of absence epilepsy in these animals were confirmed by video-EEG monitoring. In-depth detailing of surgery and electrode implantation are described in the prior art. Briefly, P24 mice were implanted, under isoflurane anesthesia (1%-2% in 100% O2), for chronic EEG recordings with gold plated miniature screw electrodes over the right and left frontal and parietal cortices, and one over the cerebellum as reference. Two vinyl-coated braided stainless steel wire electrodes were placed in the nuchal muscle for electromyogram (EMG) recording of muscle activity. All electrodes were gathered into a flexible cable and connected to the Multichannel Neurophysiology Recording system (Tucker-Davis Technologies, TDT, Alachua, Fla., USA). […] Continuous EEG recordings with occasional video monitoring were made and SWDs were scored off-line. […] Only SWD events that occurred >2 min from slow-wave-sleep periods were used for quantification. SWD event durations were measured from the first synchronized positive peak signal to the last synchronized positive peak within an event. […]
# When comparing normally distributed data, two groups were assessed with a t-test and comparisons of three or more were assessed with ANOVA. […]
# [6] = system: wild-type mice; conditions: thalamus of wild-type mice; cited from earlier work
compound,measurement,setting,value
"CC(=O)[C@H]1CC[C@H]2[C@@H]3CC[C@H]4C[C@](C)(O)CC[C@]4(C)[C@H]3CC[C@]12C [GANX, 3α-hydroxy-3β-methyl-5α-pregnan-20-one]",briefer Wake durations of RQ mice,[1]; RQ mice,not reversed
same,shorter brief awakenings (<=16 seconds) of RQ mice,[1]; RQ mice,not altered
same,shorter durations of single NREM episodes of RQ mice,[1]; RQ mice,reversed by GANX to normal levels
same,higher normalized delta power of RQ mice,"[1]; RQ mice, normal sleep time (daylight)",reversed by GANX toward normal levels
same,durations of REM,"[1]; RR, RQ, RQ with GANX",No groups differed
same,number of brief awakenings,"[1]; RR, RQ, RQ with GANX",did not differ between any groups
same,number of SWDs observed,[2],decreases the number of SWDs
same,side effects,[3],relatively modest side effects
"CCOC(=O)c1ncn2c1C1CCCN1C(=O)c1cc(OC)ccc1-2 (stereo not shown) [L655,708, 11,12,13,13a-Tetrahydro-7-methoxy-9-oxo-9H-imidazo[1,5-a]pyrrolo[2,1-c][1,4]benzodiazepine-1-carboxylic acid, ethyl ester]",tonic current in RR somatosensory cortical layer II/III cells,[4],completely blocked
same,SWD generation in RR mice,[5]; 2 mg/kg i.p.,produced SWDs
same,persistence of SWDs after the last injection,"[5]; injected twice a day for 2 consecutive days, wild-type mice",still displayed SWDs 3 days after the last injection
"Oc1noc2c1CCNC2 [THIP, 4,5,6,7-tetrahydroisoxazolo[5,4-c]pyridin-3-ol]",SWDs associated with absence epilepsy,[6],produces the SWDs
CC(=O)[C@H]1CC[C@H]2[C@@H]3CC[C@H]4C[C@H](O)CC[C@]4(C)[C@H]3CC[C@]12C [allopregnanolone],number of SWDs observed,[2],decreases the number of SWDs
